Source: patent publication US8906925B2, “Pyrido[4,3-B]indoles containing rigid moieties” (Medivation Technologies, Inc., priority 2008, dated 2014)
Where “and” joins values, the source holds several entries; their conditions need not be identical. Equal entries are not always repeated. Where two headings read alike, the source gives them in different places.

How the values were obtained:
[1] = target: T1, human recombinant adrenergic α2A receptor (Homo sapiens, UniProt P08913); assay: Adrenergic α2A radioligand binding ([3H]MK-912); settings: percent inhibition of specific binding; compound at 1 μM; read-out: Inhibition of ligand binding, Adrenergic α2A
T1 construct: expressed in transfected cells; host or cells: insect Sf9 cells
T1 sequence (P08913 1-465): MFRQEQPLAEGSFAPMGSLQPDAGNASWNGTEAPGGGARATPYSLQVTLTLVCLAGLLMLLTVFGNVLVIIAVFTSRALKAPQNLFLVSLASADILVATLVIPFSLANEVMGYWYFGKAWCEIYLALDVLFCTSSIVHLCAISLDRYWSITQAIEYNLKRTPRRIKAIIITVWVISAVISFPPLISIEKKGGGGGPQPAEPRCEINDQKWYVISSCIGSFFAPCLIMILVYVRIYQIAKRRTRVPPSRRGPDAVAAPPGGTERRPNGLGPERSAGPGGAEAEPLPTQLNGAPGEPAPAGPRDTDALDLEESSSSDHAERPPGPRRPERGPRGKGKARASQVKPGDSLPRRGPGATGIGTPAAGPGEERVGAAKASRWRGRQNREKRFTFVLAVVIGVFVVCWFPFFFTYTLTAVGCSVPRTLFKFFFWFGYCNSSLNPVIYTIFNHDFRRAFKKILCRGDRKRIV
Description: To evaluate in radioligand binding assays the activity of compounds of the invention, human recombinant adrenergic α2A receptor expressed in insect Sf9 cells (Uhlen S et al. J Pharmacol Exp Ther. 271:1558, 1994) in a modified Tris-HCl buffer (50 mM Tris-HCl, pH 7.4, 12.5 mM MgCl2, 2 mM EDTA) was used. Compounds of invention were incubated with 1 nM [^3H]MK-912 for 60 min. at 25° C. MK912 is (2S-trans)-1,3,4,5′,6,6′,7,12b-octahydro-1′,3′-dimethyl-spiro[2H-benzofuro[2,3-a]quinolizine-2,4′(1′H)-pyrimidin]-2′(3′H)-one hydrochloride Non-specific binding was estimated in the presence of 10 μM WB-4101 (2-(2,6-Dimethoxyphenoxyethyl)aminomethyl-1,4-benzodioxane hydrochloride). Receptor proteins were filtered and washed, the filters were then counted to determine [^3H]MK-912 specifically bound. Compounds were screened at 1 μM or lower, using 1% DMSO as vehicle. Biochemical assay results are presented as the percent inhibition of specific binding in Table 9.

[2] = target: T2, human recombinant histamine H2 receptor (Homo sapiens, UniProt P25021); assay: Histamine H2 radioligand binding ([125I]Aminopotentidine); settings: read-out: Histamine Binding (1 μM) H2, percent inhibition of specific binding, 1 μM
T2 construct: expressed in transfected cells; host or cells: Chinese hamster ovary (CHO) K1 cells
T2 sequence (P25021 whole entry): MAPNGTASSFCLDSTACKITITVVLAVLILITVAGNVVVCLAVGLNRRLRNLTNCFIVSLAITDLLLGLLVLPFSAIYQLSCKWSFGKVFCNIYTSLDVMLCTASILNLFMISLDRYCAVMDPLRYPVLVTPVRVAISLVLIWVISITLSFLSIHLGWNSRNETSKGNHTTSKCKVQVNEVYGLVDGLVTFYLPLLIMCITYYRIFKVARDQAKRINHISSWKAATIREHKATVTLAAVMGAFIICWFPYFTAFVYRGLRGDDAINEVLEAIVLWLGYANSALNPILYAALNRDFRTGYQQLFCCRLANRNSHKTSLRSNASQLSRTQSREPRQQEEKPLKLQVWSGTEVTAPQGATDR
Method in brief: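 Receptor source: human recombinant H2 in CHO-K1 cells, assayed in 50 mM phosphate pH 7.4. Competition against 0.1 nM [125I]aminopotentidine, 120 min, 25 °C; 3 μM tiotidine sets nonspecific binding, filter-bound counts give specific binding.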

[3] = target: T3, human recombinant serotonin (5-Hydroxytryptamine) 5-HT2A receptor (Homo sapiens, UniProt P28223); assay: Serotonin 5-HT2A radioligand binding ([3H]Ketanserin)
T3 construct: expressed in transfected cells; host or cells: Chinese hamster ovary (CHO-K1) cells
T3 sequence (P28223 whole entry): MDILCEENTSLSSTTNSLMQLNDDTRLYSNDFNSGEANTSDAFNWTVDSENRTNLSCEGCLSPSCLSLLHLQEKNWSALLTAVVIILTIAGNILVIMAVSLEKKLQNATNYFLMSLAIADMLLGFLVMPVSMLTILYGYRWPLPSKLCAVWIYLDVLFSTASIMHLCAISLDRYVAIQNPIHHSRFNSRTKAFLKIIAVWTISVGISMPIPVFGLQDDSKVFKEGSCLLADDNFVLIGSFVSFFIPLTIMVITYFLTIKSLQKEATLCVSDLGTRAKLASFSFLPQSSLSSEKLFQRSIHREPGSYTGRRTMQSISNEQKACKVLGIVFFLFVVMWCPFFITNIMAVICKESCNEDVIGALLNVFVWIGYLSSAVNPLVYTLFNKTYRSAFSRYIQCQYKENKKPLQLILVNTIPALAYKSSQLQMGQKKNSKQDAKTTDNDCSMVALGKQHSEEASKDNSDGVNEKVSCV
Description: Compounds of the invention were incubated with 0.5 nM [^3H]Ketanserin for 60 min. at 25° C. Non-specific binding was estimated in the presence of 1 μM Mianserin. Receptor proteins were filtered and washed, the filters were then counted to determine [^3H]Ketanserin specifically bound.

[4] = target: T4, human recombinant adrenergic α2B receptor (Homo sapiens, UniProt P18089); assay: Adrenergic α2B radioligand binding ([3H]Rauwolscine); settings: percent inhibition of specific binding; compound at 1 μM; read-out: Inhibition of ligand binding, Adrenergic α2B
T4 construct: expressed in transfected cells; host or cells: Chinese hamster ovary (CHO-K1) cells
T4 sequence (P18089 1-450): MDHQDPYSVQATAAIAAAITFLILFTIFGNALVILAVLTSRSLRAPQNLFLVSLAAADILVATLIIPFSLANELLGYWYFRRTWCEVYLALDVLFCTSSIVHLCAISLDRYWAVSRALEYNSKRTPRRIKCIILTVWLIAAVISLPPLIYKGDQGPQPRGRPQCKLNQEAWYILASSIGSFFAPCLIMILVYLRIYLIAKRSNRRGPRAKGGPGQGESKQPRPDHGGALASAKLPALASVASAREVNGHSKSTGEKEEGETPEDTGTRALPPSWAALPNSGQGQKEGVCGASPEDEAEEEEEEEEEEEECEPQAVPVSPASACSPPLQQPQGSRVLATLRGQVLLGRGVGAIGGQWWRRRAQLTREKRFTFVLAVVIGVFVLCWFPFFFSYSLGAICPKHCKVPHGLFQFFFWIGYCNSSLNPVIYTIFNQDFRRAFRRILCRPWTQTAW
Description: To evaluate in radioligand binding assays the activity of compounds of the invention, human recombinant adrenergic α2B receptor expressed in Chinese hamster ovary (CHO-K1) cells (Uhlen S et al. Eur J Pharmacol. 343(1):93, 1998) in a modified Tris-HCl buffer (50 mM Tris-HCl, pH 7.4, 12.5 mM MgCl2, 1 mM EDTA, 0.2% BSA) was used. Compounds of the invention were incubated with 2.5 nM [^3H]Rauwolscine for 60 min. at 25° C. Non-specific binding was estimated in the presence of 10 μM Prozosin. Receptor proteins were filtered and washed, the filters were then counted to determine [^3H]Rauwolscine specifically bound. Compounds were screened at 1 μM or lower, using 1% DMSO as vehicle. Biochemical assay results are presented as the percent inhibition of specific binding in Table 9.

histamine receptor H1 = histamine receptor H1 (Homo sapiens, UniProt P35367); assay: Histamine H1 radioligand binding ([3H]Pyrilamine); settings: for inhibition at 1 µM: read-out: Histamine Binding (1 μM) H1, percent inhibition of specific binding, 1 μM
Chain of histamine receptor H1 (P35367 whole entry): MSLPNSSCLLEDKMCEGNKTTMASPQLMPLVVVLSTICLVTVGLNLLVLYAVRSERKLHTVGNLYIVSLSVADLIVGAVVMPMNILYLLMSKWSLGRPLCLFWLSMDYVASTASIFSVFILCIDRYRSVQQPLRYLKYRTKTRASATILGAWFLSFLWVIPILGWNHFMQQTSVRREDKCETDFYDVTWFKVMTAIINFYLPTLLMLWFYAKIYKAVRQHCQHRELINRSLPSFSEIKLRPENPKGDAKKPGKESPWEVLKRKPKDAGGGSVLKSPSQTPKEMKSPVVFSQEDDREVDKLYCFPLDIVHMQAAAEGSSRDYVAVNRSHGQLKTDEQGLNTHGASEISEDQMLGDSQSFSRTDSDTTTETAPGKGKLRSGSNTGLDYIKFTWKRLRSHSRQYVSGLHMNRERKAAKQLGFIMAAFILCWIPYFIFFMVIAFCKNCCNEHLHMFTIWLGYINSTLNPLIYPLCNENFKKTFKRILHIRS
Method in brief: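 Values are percent inhibition of specific [3H]pyrilamine (1.2 nM) binding with compounds at ≤1 μM (1% DMSO vehicle); 180 min incubation at 25 °C, pH 7.4 Tris buffer, on CHO-expressed human H1 receptor; 1 μM pyrilamine defined nonspecific binding, bound ligand counted after filtration.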

[5] = read-out: Inhibition of ligand binding, Serotonin 5-HT2A (percent inhibition of specific binding), compound at 1 μM
[6] = read-out: Inhibition of ligand binding, Serotonin 5-HT2A (percent inhibition of specific binding), compound at 0.1 μM

inhibition at 0.1 µM ([3]; compound at 0.1 μM, read-out: Inhibition of ligand binding, Serotonin 5-HT2A (percent inhibition of specific binding))	inhibition at 1 µM ([3]; compound at 1 μM, read-out: Inhibition of ligand binding, Serotonin 5-HT2A (percent inhibition of specific binding))	SMILES	inhibition at 1 µM [1]	inhibition at 1 µM [2]	inhibition at 1 µM [3, 5]	inhibition at 1 µM [4]	inhibition at 1 µM (histamine receptor H1)	inhibition at 0.1 µM [3, 6]	Histamine Binding (1 μM) H1, percent inhibition of specific binding (histamine receptor H1)
		CN1CCc2c(c3cc(Cl)ccc3n2CC(O)c2cccnc2)C1 (stereo not drawn) [Compound 56, 2-(8-chloro-1,2,3,4-tetrahydro-2-methylpyrido[4,3-b]indol-5-yl)-1-(pyridin-3-yl)ethanol]	65%	26%	68%	112%	90%		
		COc1ccc(C(C)(O)Cn2c3c(c4cc(Cl)ccc42)CN(C)CC3)cc1 (stereo not drawn) [Compound 57, 1-(8-chloro-1,2,3,4-tetrahydro-2-methylpyrido[4,3-b]indol-5-yl)-2-(4-methoxyphenyl)propan-2-ol]	70%	82%	95%	108%	41%		
		COc1ccc(C(C)(O)Cn2c3c(c4cc(Cl)ccc42)CN(C)CC3)cc1F (stereo not drawn) [Compound 59, 1-(8-chloro-1,2,3,4-tetrahydro-2-methylpyrido[4,3-b]indol-5-yl)-2-(3-fluoro-4-methoxyphenyl)propan-2-ol]	83%	58%	96%	95%	63%		
		Cc1ccc2c(c1)c1c(n2CC(C)(O)c2cccnc2)CCN(C)C1 (stereo not drawn) [Compound 60, 1-(1,2,3,4-tetrahydro-2,8-dimethylpyrido[4,3-b]indol-5-yl)-2-(pyridin-3-yl)propan-2-ol]	81%	40%	78%	96%	52%		
		CN1CCc2c(c3cc(Cl)ccc3n2CC(C)(O)c2cccnc2)C1 (stereo not drawn) [Compound 61, 1-(8-chloro-1,2,3,4-tetrahydro-2-methylpyrido[4,3-b]indol-5-yl)-2-(pyridin-3-yl)propan-2-ol]	76%	41%	77%	107%	52%		
		Cc1ccc2c(c1)c1c(n2CC(C)(O)c2ccncc2)CCN(C)C1 (stereo not drawn) [Compound 62, 1-(1,2,3,4-tetrahydro-2,8-dimethylpyrido[4,3-b]indol-5-yl)-2-(pyridin-4-yl)propan-2-ol]	57%	43%	88%	103%	38%		
		CN1CCc2c(c3cc(Cl)ccc3n2CC(C)(O)c2ccncc2)C1 (stereo not drawn) [Compound 63, 1-(8-chloro-1,2,3,4-tetrahydro-2-methylpyrido[4,3-b]indol-5-yl)-2-(pyridin-4-yl)propan-2-ol]	74%	53%	95%	101%	46%		
		CCC(O)(Cn1c2c(c3cc(Cl)ccc31)CN(C)CC2)c1ccc(F)cc1 (stereo not drawn) [Compound 78, 1-(8-chloro-1,2,3,4-tetrahydro-2-methylpyrido[4,3-b]indol-5-yl)-2-(4-fluorophenyl)butan-2-ol]	91%	89%	97%	87%	52%	76%	69%
		CN1CCc2c(c3cc(Cl)ccc3n2CC(O)(c2ccc(F)cc2)C2CC2)C1 (stereo not drawn) [Compound 82, 2-(8-chloro-1,2,3,4-tetrahydro-2-methylpyrido[4,3-b]indol-5-yl)-1-cyclopropyl-1-(4-fluorophenyl)ethanol]	96%	99%	100%	99%		92%	35% and 64%
98%	99%	C/C(=C\n1c2c(c3cc(Cl)ccc31)CN(C)CC2)c1ccc(F)cc1 [Compound 83, (E)-8-chloro-5-(2-(4-fluorophenyl)prop-1-enyl)-2,3,4,5-tetrahydro-2-methyl-1H-pyrido[4,3-b]indole]	98%	99%		121%			60% and 79% and 84%
		C/C(=C\n1c2c(c3cc(C)ccc31)CN(C)CC2)c1ccc(F)cc1 [Compound 87, (E)-5-(2-(4-fluorophenyl)prop-1-enyl)-2,3,4,5-tetrahydro-2,8-dimethyl-1H-pyrido[4,3-b]indole]	95%	100%	99%	121%	65%	100%	81%
		C/C(=C\n1c2c(c3cc(Cl)ccc31)CN(C)CC2)c1ccc(C)nc1 [Compound 89, (E)-8-chloro-2,3,4,5-tetrahydro-2-methyl-5-(2-(6-methylpyridin-3-yl)prop-1-enyl)-1H-pyrido[4,3-b]indole]	97%	91%	101%	108%	43%		
		C/C(=C\n1c2c(c3cc(Cl)ccc31)CN(C)CC2)c1ccncc1 [Compound 90, (E)-8-chloro-2,3,4,5-tetrahydro-2-methyl-5-(2-(pyridin-4-yl)prop-1-enyl)-1H-pyrido[4,3-b]indole]	95%	60%	100%	104%	48%	97%	59%
		COc1ccc(/C(C)=C/n2c3c(c4cc(Cl)ccc42)CN(C)CC3)cc1 [Compound 92, (E)-8-chloro-2,3,4,5-tetrahydro-5-(2-(4-methoxyphenyl)prop-1-enyl)-2-methyl-1H-pyrido[4,3-b]indole]	89%	99%	100%	103%	44%		
